# Laboratory results: patent US8093288B2, “Genipin derivatives and uses thereof” (Beth Israel Deaconess Medical Center, priority 2003, dated 2012)
# “Also recorded” adds a separate entry of the source.
# Columns and labels:
# [1] = test system: ob/ob islets; assay: Glucose-stimulated insulin secretion in islets from ob/ob mice; assay type: cell-based; conditions: 5 μM genipin acutely added, FIG. 12C
# Protocol: (§1) Pancreatic islets were isolated from WT (FIG. 12A) or UCP2 KO mice (FIG. 12B) and subjected to chronic incubations at low (5.5 mM) and high glucose (25 mM). In a separate experiment, islets were isolated from ob/ob mice (FIG. 12C). Islets were incubated for a total of 72 hours and washed, and then insulin-secretion studies were performed using three different concentrations of glucose (5.5, 12.5, and 25 mM) with or without 5 μM genipin. Results are means±SEM of four independent experiments (FIGS. 12A and 12B) or eight to twenty repeats of one representative experiment (FIG. 12C). WT islets that were chronically incubated at low glucose released increasing amounts of insulin in response to increasing concentrations of glucose (FIG. 12A, left panel). Following chronic hyperglycemia, islets increased basal insulin release, but were completely unresponsive to glucose stimulation (FIG. 12A, middle panel). […] To assess the role of genipin in hyperglycemia-induced loss of glucose responsiveness, genipin was acutely added into islets during the insulin-release phase of the study. […] Insulin secretion in islets from ob/ob mice and ob/ob mice lacking UCP2 with or without genipin was also studied. It has been reported that in ob/ob islets, UCP2 expression levels are increased compared to WT islets. […]
# [2] = test system: islets from ob/ob mice lacking UCP2; assay: Glucose-stimulated insulin secretion in islets from ob/ob mice lacking UCP2; assay type: cell-based; conditions: 5 μM genipin, FIG. 12C
# Protocol: as §1
# [3] = test system: pancreatic islets from UCP2 knockout mice; assay: Insulin secretion in isolated pancreatic islets from UCP2 knockout mice; assay type: cell-based; conditions: 5.5 mM glucose, 50 nM, 0.5 μM and 5 μM genipin, 37° C. for 60 min, FIG. 4 / FIG. 11B
# Protocol: As used or herein, pancreatic islets from wildtype and UCP2 knockout mice were isolated according to a method used for rats (Cawthorn and Chan, Mol. Cell. Endocrinol. 1991, 75:197-204, the entire teachings of which are incorporated herein by reference), except that the total exposure to type XI collagenase (Worthington Biochemical Co., NJ) was 30 min. and the Ficoll gradient was altered to layers of 25%, 23%, 21%, and 11%. Islets were harvested from the 11%-21% interface.
# Islets were cultured in RPMI medium containing 11.0 mM glucose and supplemented with 1% penicillin-streptomycin. 7.5% fetal bovine serum (all from Gibco/BRL, Burlington, ON), and 10 mM Hepes (Sigma). After culturing for 20-24 hr, the islets were transferred to microcentrifuge tubes, pelleted (800 g for 5 min), and the medium aspirated and replaced with 1.0 mL DME medium containing 1% gelatin and 5.5 mM glucose with no genipin (control), 50 nM genipin, 0.5 μM genipin, and 5 μM genipin. For insulin secretion studies, the three islets were incubated per tube. After incubation at 37° C. for 60 min., the islets were centrifuged. The supernatant was collected and stored at −80° C., and then later assayed for insulin using Rat Insulin ELISA Kit (Cat. No. INSKR020, Crystal Chem., Inc., Chicago, Ill.).
# FIGS. 11B and 11C show their effects on insulin secretion. Pancreatic islets were isolated from WT or UCP2 knockout (KO) mice. […]
# [4] = test system: high fat diet-fed wildtype mice; assay: Blood glucose and insulin after genipin injection in high fat diet-fed wildtype mice; assay type: in vivo; conditions: high fat diet 24 weeks, 20 hours fasting, 300 μg genipin injected, thirty minutes after injection
# Protocol: Wildtype and UCP2 knockout mice were placed on a high fat diet obtained from Research Diets Inc., New Brunswick, N.J. (cat. no. D12331, HFD). The fat source was coconut oil and comprised 58% of the total calories. The mice remained on the high fat diet for 24 weeks. After the 24 weeks, both the wildtype and the UCP2 knockout mice were obese (about 50-60 g). After 20 hours of fasting, the blood glucose and insulin levels of the mice were measured, then the mice were injected with 300 μg of genipin. Thirty minutes after injection the blood glucose and insulin levels of the mice were measured again. Blood glucose levels were assessed using a glucometer (One touch, Lifescan, Milpitas, Calif.). Serum insulin concentrations were assessed using mouse insulin as a standard (Rat Insulin ELISA Kit. cat. #INSKR020 Crystal Chem. Inc., Chicago, Ill.). […] A comparison of the effect of genipin on the blood glucose levels and insulin levels in wildtype and UCP2 knockout mice can be seen in FIGS. 7 and 10, respectively.
structure (smiles),measurement,setting,value
COC(=O)C1=CO[C@@H](O)[C@@H]2C(CO)=CC[C@H]12 [genipin],glucose sensing (glucose-stimulated insulin secretion),[1],restored glucose sensing
same,glucose sensing (glucose-stimulated insulin secretion),[2],did not improve glucose sensing above the level seen in islets lacking UCP2 alone
same,insulin secretion,[3],does not increase insulin secretion; also recorded: no effect on insulin secretion
same,blood glucose levels,[4]; FIG. 5,significantly lowered blood glucose
same,blood insulin levels,[4]; FIG. 8,dramatically increase the blood insulin levels
